# Test results from patent US20110064773A1, “PHARMACEUTICAL COMPOSITIONS COMPRISING A THYROID HORMON AND THEIR THERAPEUTIC USE” (UNIVERSITE JOSEPH FOURIER, priority 2007, published 2011).
# Entries after “also recorded” stand apart in the source; their conditions may differ.
# Columns and labels:
# Assay type in all cases: in vivo, rat
# liver mitochondria = assay: Rate of liver mitochondrial oxygen consumption (JO2) of treated Wistar rats; conditions: vs placebo
# Protocol: (§1) The major part of the liver and the red part of each quadriceps were rinsed, and chopped into isolation medium (250 mM sucrose, 20 mM Tris-HCl and 1 mM EGTA-Tris, pH 7.4). Nuclei and cell debris were removed by centrifugation at 800 g for 10 min. Mitochondria were then isolated from the supernatant by spinning twice at 8,000 g for 10 minutes. The mitochondrial pellet was resuspended in 0.5 ml of isolation buffer and kept on ice. Mitochondrial protein was measured by the bicinchoninic acid method (Pierce, Rockford, Ill.). The final mitochondrial suspensions were maintained on ice and were used for measurements of oxygen consumption rate.
# (§2) The rate of mitochondrial oxygen consumption (JO2) was measured at 30° C. in an incubation chamber with a Clark-type O2 electrode filled with 2 ml of incubation medium (125 mM KCl, 10 mM Pi-Tris, 20 mM Tris-HCl, 0.1 mM EGTA, pH 7.2). All measurements were performed using mitochondria (1.0 or 0.2 mg mitochondrial protein/ml for liver and skeletal muscle) incubated either with various substrates: glutamate/malate (5 mM/2.5 mM) and succinate (5 mM), alone or in combination, palmitoyl carnitine (55 μM) and octanoyl carnitine (100 μM). For each substrate, JO2 was recorded in the presence of the substrate alone (State 2) and following the addition of 1 mM ADP (state 3). Oligomycin (1.25 μg/mg protein) was added to the mitochondrial suspension to determine the non-phosphorylating respiratory rate (state 4). The incubation medium was constantly stirred with a built-in electromagnetic stirrer and bar flea. The efficiency of the mitochondrial oxidative phosphorylation was assessed by the state 3/state 4 ratio which measures the degree of control imposed on oxidation by phosphorylation (respiratory control ratio, RCR).
# muscle mitochondria = assay: Rate of muscle mitochondrial oxygen consumption (JO2) of treated Wistar rats; conditions: 250 μg/kg BW/day, vs placebo
# Protocol: as §1, §2
# [1] = Blood rT3 dosage over 24 hours after administration; conditions: Wistar rats
# Protocol: Blood rT3 dosage. The rT3 concentration is measured for 24 hours in Wistar rats treated with a high dosage of rT3 by intra-peritoneal injection (IP, square), oral ingestion (per os, triangle) or subcutaneous injection (sc, star). Basal rT3 level is measured in animal treated with placebo (lozenge).
# Wistar rats were treated with rT3 hormone by a daily intraperitoneal injection (IP) (25 μg/100 g BW), a daily sub-cutaneous injection (SC) (25 μg/100 g BW), or a per os administration included in the rat food (25 μg/100 g BW). The continuous and constant administration was performed by using a pellet (25 μg/100 g BW).
# Wistar rats = assay: Growth rate (body weight) and food intake of Wistar rats; conditions: ultra low dose 0.25 μg/100 g BW, vs placebo
# [2] = high dose 250 μg/kg BW/day, various substrates
smiles,measurement,setting,value
"N[C@@H](Cc1ccc(Oc2cc(I)c(O)c(I)c2)c(I)c1)C(=O)O [rT3, 3′,5′,3-triiodothyronine]","Liver mitochondrial respiratory rate, non-phosphorylating (state 4, oligomycin)",liver mitochondria; [2],much higher as compared to placebo; also recorded: dose-dependent increase
same,"Liver mitochondrial respiratory rate, phosphorylating (state 3, ADP)",liver mitochondria; [2],very significant increased respiratory rate; also recorded: dose-dependent increase
same,"Liver mitochondrial respiratory rate, non-phosphorylating (state 4)",liver mitochondria; low dose 25 μg/kg BW/day,decreased efficiency; also recorded: dose-dependent increase
same,"Liver mitochondrial respiratory rate, phosphorylating (state 3)",liver mitochondria; low dose 25 μg/kg BW/day,higher maximal respiratory capacity; also recorded: dose-dependent increase
same,"Muscle mitochondrial respiration, non-phosphorylating (state 4)",muscle mitochondria,failed to substantially affect
same,"Muscle mitochondrial respiration, phosphorylating (state 3)",muscle mitochondria,failed to substantially affect
same,Circulating rT3 (degradation),"[1]; high dosage, intra-peritoneal injection",rapidly degraded
same,Circulating rT3 compared to the injected dose,"[1]; intra-peritoneal injection, after 5 hours",five fold decreased
same,Circulating rT3 concentration in blood,[1]; per os administration,never allows to obtain in blood a concentration of rT3 similar with the concentration observed after intra-peritoneal injection
same,Circulating rT3 concentration in blood,[1]; sub-cutaneous injection,remains substantially the same as the injected concentration
same,Circulating rT3 (degradation),"[1]; sub-cutaneous injection, after 24 hours",quasi completely degraded
same,Body weight,Wistar rats,also reduce the body weight
